How the values were obtained:
NaV1.7 [1] = molecular target: T1, NaV1.7 (Homo sapiens, UniProt Q15858); test: Manual patch clamp, external block of NaV1.7 current; format: cell-based; settings: % inhibition at 10 μM test concentration, compound in external solution, HEK293 cells, read-out: Nav1.7 Extracellular Inhibition
T1 construct: expressed in transfected cells; host or cells: HEK293 (tetracycline-inducible)
Experimental: Representative compounds of the invention were synthesized according to the described methods and tested for the ability to inhibit voltage-gated sodium channels.
NaV1.7 was expressed in HEK293 cells upon induction with tetracycline. Cells were cultured in DMEM containing 10% dialyzed Fetal Bovine Serum (VWR, Radnor, Pa.), 1% Glutamax (VWR, Radnor, Pa.), 1% Penicillin-Streptomycin (VWR, Radnor, Pa.), 100 mg/L Hygromycin (Thermo Fisher Scientific, Waltham, Mass. and 5 mg/L Blasticidin (Alfa Aesar, Haverhill, Mass.). Cells were grown and maintained at 37° C. in a humidified environment containing 10% CO2 in air. Cells were detached from the culture flask for passage and harvested using 0.05% Trypsin-EDTA (Thermo Fisher Scientific, Waltham, Mass.). To induce NaV1.7, cells were induced with tetracycline (0.1-1 μg/mL, IBI Scientific, Peosta, Iowa) the day before recording and plated onto 24-well plates. Cells were washed with DPBS (VWR, Radnor, Pa.), trypsinized and then triturated five times in 10 mL of growth media to break apart cell aggregates. For one 24-well plate, 2 mL of cell suspension was mixed with 23 mL of fresh growth media and 0.1-1 μg/mL tetracycline added. 1 ml of mixed media with cells was then added to each well of a 24-well plate, with a 12 mm coverslip already placed in the bottom of the well. Cells were then incubated in 37° C. and 10% CO2 overnight.
The intracellular solution contained the following (in mM) CsCl 135, NaCl 10, EGTA 10, HEPES 10, MgCl2 2, adjusted to pH 7.2 with CsOH. The external solution was a normal Ringer solution containing (in mM) NaCl 155, HEPES 10, glucose 10, KCl 3.5, CaCl2 1.5, MgCl2 1 adjusted to pH 7.4 with NaOH. CsCl is from Alfa Aesar, Haverhill, Mass. All other chemicals are from Sigma-Aldrich, St. Louis, Mo. In order to test the degree of internal block by test compounds the compounds were dissolved in internal solution at the indicated test concentration. […] In order to test the degree of external block by test compounds the compounds were dissolved in external solution at the indicated test concentration.
18-24 hours after cells were induced with tetracycline, coverslips were placed into a chamber filled with Normal Ringer solution at room temperature and the chamber placed on a microscope. Pipettes were pulled from borosilicate glass on a P97 puller (Sutter Instrument, Novato, Calif.) and polished with a MF-830 Microforge (Narishige International USA, Inc., Amityville, N.Y.) to have a resistance of 1.5-2.5 MΩ when filled with CsCl internal solution at room temperature. Healthy cells (those that are round and translucent with no visible blemishes) were chosen for seal formation. A seal was formed between the pipette and the cell, and a brief pulse of suction was used to “break in” and establish the whole-cell configuration. The membrane potential was held at −100 mV before the voltage protocol began. Only cells with series resistance between 1.5-5 MΩ were retained for analysis. The voltage protocol was as follows: Cells were held at −100 mV for 12 ms followed by a hyperpolarizing step to −105 mV for 12 ms to monitor the leak. Cells were then stepped back to −100 mV for 40 ms. Cells were then depolarized to −20 mV for 10 ms and then returned to −100 mV for 26 ms.
Once the recording was started, the voltage protocol was run at 30 second intervals for 5 minutes to get a stable baseline. This is followed by 5 Hz stimulation of the same voltage protocol run until the end of experiment. […] The test compound is added for 5 minutes before washing out with normal Ringer's solution. Currents were recorded using PatchMaster software with Heka EPC10 (HEKA Electronics, Lambrecht, Germany). Only cells with inward current amplitudes at −20 mV between 400 pA and 4 nA were accepted. In addition, cells having leak currents greater than 10% of their current amplitudes were discarded. […]

NaV1.7 [2] = molecular target: T1, NaV1.7; test: Manual patch clamp, internal block of NaV1.7 current; format: cell-based; settings: compound in internal solution, HEK293 cells, read-out: Nav1.7 Intracellular Inhibition; for inhibition at 3 µM: % inhibition at 3 μM test concentration
Method in brief: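 Whole-cell recordings at room temperature in tetracycline-induced HEK293 cells, compound in CsCl internal solution (pH 7.2), held at −100 mV with 10 ms steps to −20 mV. Four 30 s 5 Hz trains after 5 min baseline; fraction of peak inward current remaining computed as Itest/Ibaseline.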

T1 sequence (Q15858 whole entry): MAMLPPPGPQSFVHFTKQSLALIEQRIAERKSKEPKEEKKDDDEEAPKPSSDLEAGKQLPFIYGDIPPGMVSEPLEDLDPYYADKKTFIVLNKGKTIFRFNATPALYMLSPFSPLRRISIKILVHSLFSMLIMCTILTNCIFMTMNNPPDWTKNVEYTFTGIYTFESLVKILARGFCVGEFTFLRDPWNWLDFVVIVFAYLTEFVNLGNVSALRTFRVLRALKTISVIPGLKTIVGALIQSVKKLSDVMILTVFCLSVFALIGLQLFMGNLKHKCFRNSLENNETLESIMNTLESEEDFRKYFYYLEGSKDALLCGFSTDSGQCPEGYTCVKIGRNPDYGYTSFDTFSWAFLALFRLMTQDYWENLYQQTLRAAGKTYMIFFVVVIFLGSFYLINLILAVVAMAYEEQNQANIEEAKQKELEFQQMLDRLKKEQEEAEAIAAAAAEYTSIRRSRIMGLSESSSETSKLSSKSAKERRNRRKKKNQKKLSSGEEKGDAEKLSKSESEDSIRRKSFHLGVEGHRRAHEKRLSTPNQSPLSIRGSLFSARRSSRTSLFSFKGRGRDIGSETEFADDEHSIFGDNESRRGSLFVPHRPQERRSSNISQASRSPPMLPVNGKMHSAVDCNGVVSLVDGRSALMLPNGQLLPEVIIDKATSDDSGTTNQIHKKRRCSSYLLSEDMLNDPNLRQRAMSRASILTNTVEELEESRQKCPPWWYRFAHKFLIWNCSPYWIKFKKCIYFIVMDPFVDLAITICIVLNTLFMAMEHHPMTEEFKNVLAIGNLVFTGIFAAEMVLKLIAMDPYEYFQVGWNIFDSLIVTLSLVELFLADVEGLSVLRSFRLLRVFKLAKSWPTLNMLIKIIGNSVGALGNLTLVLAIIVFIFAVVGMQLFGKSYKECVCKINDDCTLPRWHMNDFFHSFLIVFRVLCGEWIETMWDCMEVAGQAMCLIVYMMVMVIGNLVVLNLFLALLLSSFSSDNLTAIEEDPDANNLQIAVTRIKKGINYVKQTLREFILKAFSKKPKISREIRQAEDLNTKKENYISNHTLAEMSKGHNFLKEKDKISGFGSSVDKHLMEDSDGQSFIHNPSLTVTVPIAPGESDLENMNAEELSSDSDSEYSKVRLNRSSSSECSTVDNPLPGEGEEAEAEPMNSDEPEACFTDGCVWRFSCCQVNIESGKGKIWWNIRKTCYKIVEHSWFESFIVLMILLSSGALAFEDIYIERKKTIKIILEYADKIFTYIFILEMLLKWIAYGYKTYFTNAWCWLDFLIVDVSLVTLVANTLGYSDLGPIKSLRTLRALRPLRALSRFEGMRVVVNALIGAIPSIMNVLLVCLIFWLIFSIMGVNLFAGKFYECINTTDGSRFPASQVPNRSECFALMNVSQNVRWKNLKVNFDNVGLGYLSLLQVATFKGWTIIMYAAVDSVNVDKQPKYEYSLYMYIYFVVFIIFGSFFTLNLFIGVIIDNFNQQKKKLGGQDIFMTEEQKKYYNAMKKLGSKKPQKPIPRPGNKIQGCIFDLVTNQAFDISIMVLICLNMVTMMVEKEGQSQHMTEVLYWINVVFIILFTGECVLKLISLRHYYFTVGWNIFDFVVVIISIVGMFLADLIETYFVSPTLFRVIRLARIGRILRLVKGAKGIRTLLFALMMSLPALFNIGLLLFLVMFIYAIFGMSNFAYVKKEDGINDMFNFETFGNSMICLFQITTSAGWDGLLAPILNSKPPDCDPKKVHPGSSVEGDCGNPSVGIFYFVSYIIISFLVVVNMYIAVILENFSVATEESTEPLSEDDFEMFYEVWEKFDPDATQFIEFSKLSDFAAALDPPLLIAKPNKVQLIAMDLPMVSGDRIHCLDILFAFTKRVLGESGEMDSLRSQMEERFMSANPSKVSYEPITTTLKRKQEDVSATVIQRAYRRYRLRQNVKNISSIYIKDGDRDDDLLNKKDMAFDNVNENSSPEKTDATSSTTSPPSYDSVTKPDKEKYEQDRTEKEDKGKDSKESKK

## COC(=O)C1CC[N+](CC(=O)Nc2c(C)cccc2C)(Cc2ccccc2)CC1.[Br-] (centres unmarked) [Compound 44A, 1-benzyl-1-(2-((2,6-dimethylphenyl)amino)-2-oxoethyl)-4-(methoxycarbonyl) piperidin-1-ium bromide]
NaV1.7 [1]
  inhibition at 10 µM: < 40%
NaV1.7 [2]
  inhibition at 3 µM: > 90%

## COC(=O)c1cccc(C[N+]2(CC(=O)Nc3c(C)cccc3C)CCCCC2)c1.[Br-] [Compound 35A, 1-(2-((2,6-dimethylphenyl)amino)-2-oxoethyl)-1-(3-(methoxycarbonyl)benzyl) piperidin-1-ium bromide]
NaV1.7 [1]
  inhibition at 10 µM: < 40%
NaV1.7 [2]
  inhibition at 3 µM: > 90%

## CC[N+](CC)(CCCc1ccccc1)CC(=O)Nc1c(C)cccc1C.[Br-] [Compound 86A, N-(2-((2,6-dimethylphenyl)amino)-2-oxoethyl)-N, N-diethyl-3-phenylpropan-1-aminium bromide]
NaV1.7 [1]
  inhibition at 10 µM: < 40%
NaV1.7 [2]
  inhibition at 3 µM: > 90%
NaV1.7 [2]; % inhibition at 10 μM test concentration
  inhibition at 10 µM: > 95%

## CCCOC(=O)C1CCC[N+](CC(=O)Nc2c(C)cccc2C)(Cc2ccccc2)C1.[Br-] (centres unmarked) [Compound 47A, 1-benzyl-1-(2-((2,6-dimethylphenyl)amino)-2-oxoethyl)-3-(propoxycarbonyl) piperidin-1-ium bromide]
NaV1.7 [1]
  inhibition at 10 µM: 40 to 70%
NaV1.7 [2]
  inhibition at 3 µM: > 90%

## Cc1cccc(C)c1N1CCC([N+]2(Cc3ccccc3)CCCCCCC2)C1=O.[Br-] (centres unmarked) [Compound 90A]
NaV1.7 [1]
  inhibition at 10 µM: < 40%
NaV1.7 [2]
  inhibition at 3 µM: > 90%

Reference: patent publication US11603355B2, “Charged ion channel blockers and methods for use” (Nocion Therapeutics, Inc., priority 2019, dated 2023)
